biological target: T1, CBL-B (Homo sapiens, UniProt Q13191); assay: CBL-B TR-FRET IC50 screening (E1/E2 ubiquitination, Biotin-Ubiquitin, Anti GST-Tb donor / Streptavidin-d2 acceptor); assay type: biochemical; details: CBL-B 10 nM final; 11-point titration from 100 uM; binned A-F; read-out: CBL-B TR-FRET activity IC50
T1 construct: GST
T1 sequence (Q13191 whole entry): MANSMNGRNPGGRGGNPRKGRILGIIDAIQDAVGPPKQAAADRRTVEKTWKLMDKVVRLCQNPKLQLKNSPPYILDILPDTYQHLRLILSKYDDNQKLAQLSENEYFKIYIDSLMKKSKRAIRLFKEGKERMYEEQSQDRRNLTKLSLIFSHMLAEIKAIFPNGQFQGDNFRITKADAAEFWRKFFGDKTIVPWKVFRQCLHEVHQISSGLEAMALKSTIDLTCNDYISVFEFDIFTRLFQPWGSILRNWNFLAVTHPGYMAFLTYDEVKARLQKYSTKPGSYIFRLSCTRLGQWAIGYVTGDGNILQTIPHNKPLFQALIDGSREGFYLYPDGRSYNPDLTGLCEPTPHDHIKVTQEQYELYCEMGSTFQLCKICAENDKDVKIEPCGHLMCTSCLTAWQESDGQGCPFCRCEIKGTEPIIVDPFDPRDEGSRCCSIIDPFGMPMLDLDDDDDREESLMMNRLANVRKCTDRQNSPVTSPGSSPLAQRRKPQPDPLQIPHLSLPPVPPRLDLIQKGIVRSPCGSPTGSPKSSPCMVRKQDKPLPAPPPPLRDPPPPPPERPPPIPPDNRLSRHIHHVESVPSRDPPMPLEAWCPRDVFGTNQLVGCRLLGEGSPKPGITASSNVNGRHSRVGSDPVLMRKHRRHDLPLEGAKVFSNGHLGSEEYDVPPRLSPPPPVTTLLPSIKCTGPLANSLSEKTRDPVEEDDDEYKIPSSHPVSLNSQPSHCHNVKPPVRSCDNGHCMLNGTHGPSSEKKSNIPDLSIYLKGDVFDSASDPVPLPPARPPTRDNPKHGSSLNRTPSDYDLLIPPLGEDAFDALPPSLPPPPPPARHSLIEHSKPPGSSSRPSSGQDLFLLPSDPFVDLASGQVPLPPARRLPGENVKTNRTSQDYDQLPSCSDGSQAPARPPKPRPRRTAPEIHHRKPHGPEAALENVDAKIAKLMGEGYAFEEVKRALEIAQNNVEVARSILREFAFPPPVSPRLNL

SMILES | IC50 [nM]
C[C@@H]1CN(Cc2cc(C(F)(F)F)c3cn(-c4cccc([C@@H](c5nncs5)C5CCC5)c4)c(=O)n3c2)CCO1 [Compound 300] | 1000 to 3000
C[C@@H]1CN(Cc2cc(C(F)(F)F)c3cn(-c4cccc([C@H](c5nncn5C)C5COC5)c4)c(=O)n3c2)CCO1 [Compound 304] | < 100
Cn1cnnc1C1(c2cccc(-n3cc4c(C(F)(F)F)cc(CN5CCc6ncsc6C5)cn4c3=O)c2)CC2(CC2)C1 [Compound 307] | < 100
C[C@H]1CCCN(Cc2cc(C(F)(F)F)c3cn(-c4cccc(C5(c6nncn6C)CC6(CCC6)C5)c4)c(=O)n3c2)C1 [Compound 310] | < 100
C[C@H]1CCCN(Cc2cc(C(F)(F)F)c3cn(-c4cccc(C5(c6nncs6)CC6(CC6)C5)c4)c(=O)n3c2)C1 [Compound 311] | > 10000
C[C@@H]1CN(Cc2cc(C(F)(F)F)c3cn(-c4cccc(N(c5nncn5C)C5CCC5)c4)c(=O)n3c2)CCO1 [Compound 314] | > 10000
Cn1cnnc1[C@@H](c1cccc(-n2cc3c(C(F)(F)F)cc(CN4CCc5scnc5C4)cn3c2=O)c1)C1CCC1 [Compound 315] | < 100
Cn1cnnc1[C@@H](c1cccc(-n2cc3c(C(F)(F)F)cc(CN4CCn5cnnc5C4)cn3c2=O)c1)C1CCC1 [Compound 316] | < 100
Cn1cnnc1[C@@H](c1cccc(-n2cc3c(C(F)(F)F)cc(CN4CCn5ncnc5C4)cn3c2=O)c1)C1CCC1 [Compound 317] | < 100
CO[C@H]1C[C@@](c2cccc(-n3cc4c(C(F)(F)F)cc(CN5CCC[C@H](C)C5)cn4c3=O)c2)(c2nncn2C)C1 [Compound 318] | < 100
Cn1cnnc1[C@@H](c1cccc(-n2cc3c(C(F)(F)F)cc(CNCC4COC4)cn3c2=O)c1)C1CCC1 [Compound 322] | < 100
CN(Cc1cc(C(F)(F)F)c2cn(-c3cccc([C@H](c4nncn4C)C4CCC4)c3)c(=O)n2c1)C1COC1 [Compound 323] | < 100
Cn1cnnc1[C@@H](c1cccc(-n2cc3c(C(F)(F)F)cc(CNC4COC4)cn3c2=O)c1)C1CCC1 [Compound 324] | < 100
Cc1[nH]nnc1[C@H](c1cccc(-n2cc3c(C(F)(F)F)cc(CN4CCC[C@H](C)C4)cn3c2=O)c1)C1CCC1 [Compound 326] | < 100
Cc1[nH]nnc1[C@@H](c1cccc(-n2cc3c(C(F)(F)F)cc(CN4CCC[C@H](C)C4)cn3c2=O)c1)C1CCC1 [Compound 327] | < 100
O=c1n(-c2cccc([C@H](c3nncs3)C3CCC3)c2)cc2c(C(F)(F)F)cc(CN3CCC4(CC4)C3)cn12 [Compound 328] | 1000 to 3000
COC1CCN(Cc2cc(C(F)(F)F)c3cn(-c4cccc([C@H](c5nncs5)C5CCC5)c4)c(=O)n3c2)CC1 [Compound 330] | 301 to 1000
Cn1cnnc1[C@@H](c1cccc(-n2cc3c(C(F)(F)F)cc(-c4nncs4)cn3c2=O)c1)C1CCC1 [Compound 331] | 301 to 1000
C[C@H]1CCCN(Cc2cc(C(F)(F)F)c3cn(-c4cccc([C@@H](CC5CC5)c5nncn5C)c4)c(=O)n3c2)C1 [Compound 332-p2] | < 100
C[C@H]1CCCN(Cc2cc(C(F)(F)F)c3cn(-c4cccc([C@H](CC5CC5)c5nncn5C)c4)c(=O)n3c2)C1 [Compound 332_P1] | > 10000
O=c1n(-c2cccc([C@H](c3nncs3)C3CCC3)c2)cc2c(C(F)(F)F)cc(CN3CCC(F)CC3)cn12 [Compound 333] | 100 to 300
C[C@H]1CCCN(Cc2cc(C(F)(F)F)c3cn(-c4cccc(N(c5nncn5C)C5COC5)c4)c(=O)n3c2)C1 [Compound 334] | < 100

SMILES | IC50 [nM]
Cn1cnnc1[C@@H](c1cccc(-n2cc3c(C(F)(F)F)cc(CN4CC(Oc5ccc(Cl)cc5)C4)cn3c2=O)c1)C1CCC1 [Compound 338] | < 100
CC(=O)N1CCN(Cc2cc(C(F)(F)F)c3cn(-c4cccc([C@@H](c5nncn5C)C5CCC5)c4)c(=O)n3c2)CC1 [Compound 339_P1] | < 100
CC(=O)N1CCN(Cc2cc(C(F)(F)F)c3cn(-c4cccc([C@H](c5nncn5C)C5CCC5)c4)c(=O)n3c2)CC1 [Compound 339_P2] | 1000 to 3000
C[C@H]1CCCN(Cc2cc(C(F)(F)F)c3cn(-c4cccc(C5(c6nncn6C)CCC5)c4)c(=O)n3c2)C1 [Compound 341] | < 100
C[C@H]1CCCN(Cc2cc(C(F)(F)F)c3cn(-c4cccc(N(c5nncs5)C5CCC5)c4)c(=O)n3c2)C1 [Compound 344] | > 10000
Cn1cnnc1[C@@H](c1cccc(-n2cc3c(C(F)(F)F)cc(CN4CCc5ncsc5C4)cn3c2=O)c1)C1COC1 [Compound 345] | < 100
CN(Cc1cc(C(F)(F)F)c2cn(-c3cccc([C@H](c4nncn4C)C4CCC4)c3)c(=O)n2c1)CC1COC1 [Compound 347] | < 100
CC(=O)N1CC2CCC(C1)N2Cc1cc(C(F)(F)F)c2cn(-c3cccc([C@H](c4nncn4C)C4CCC4)c3)c(=O)n2c1 [Compound 348] | 100 to 300
CC(=O)N1C2CCC1CN(Cc1cc(C(F)(F)F)c3cn(-c4cccc([C@H](c5nncn5C)C5CCC5)c4)c(=O)n3c1)C2 [Compound 349] | < 100
COC(=O)N1CCN(Cc2cc(C(F)(F)F)c3cn(-c4cccc([C@@H](c5nncn5C)C5CCC5)c4)c(=O)n3c2)CC1 [Compound 351_P1] | 1000 to 3000
COC(=O)N1CCN(Cc2cc(C(F)(F)F)c3cn(-c4cccc([C@H](c5nncn5C)C5CCC5)c4)c(=O)n3c2)CC1 [Compound 351_P2] | < 100
C[C@H]1CCCN(Cc2cc(C(F)(F)F)c3cn(-c4cccc([C@H](CC5CCC5)c5nncn5C)c4)c(=O)n3c2)C1 [Compound 352_P1] | > 10000
C[C@H]1CCCN(Cc2cc(C(F)(F)F)c3cn(-c4cccc([C@@H](CC5CCC5)c5nncn5C)c4)c(=O)n3c2)C1 [Compound 352_P2] | 100 to 300
C[C@H]1CCCCN1Cc1cc(C(F)(F)F)c2cn(-c3cccc([C@@H](c4nncn4C)C4CCC4)c3)c(=O)n2c1 [Compound 362_P1] | < 100
C[C@H]1CCCCN1Cc1cc(C(F)(F)F)c2cn(-c3cccc([C@H](c4nncn4C)C4CCC4)c3)c(=O)n2c1 [Compound 362_P2] | 100 to 300
C[C@@H]1CCCCN1Cc1cc(C(F)(F)F)c2cn(-c3cccc([C@@H](c4nncn4C)C4CCC4)c3)c(=O)n2c1 [Compound 363_P1] | > 10000
CN1CC2CCC(C1)N2c1cc(C(F)(F)F)c2cn(-c3cccc([C@H](c4nncn4C)C4CCC4)c3)c(=O)n2c1 [Compound 373] | 100 to 300
CN1C2CCC1CN(c1cc(C(F)(F)F)c3cn(-c4cccc([C@H](c5nncn5C)C5CCC5)c4)c(=O)n3c1)C2 [Compound 374] | 301 to 1000
COCCN(c1cccc(-n2cc3c(C(F)(F)F)cc(CN4CCC[C@H](C)C4)cn3c2=O)c1)c1nncn1C [Compound 375] | 100 to 300
CN(C)C(=O)C1CCN(Cc2cc(C(F)(F)F)c3cn(-c4cccc([C@H](c5nncn5C)C5CCC5)c4)c(=O)n3c2)CC1 [Compound 377] | < 100
C[C@H]1CCCN(C(=O)c2cc(C(F)(F)F)c3cn(-c4cccc([C@H](c5nncn5C)C5CCC5)c4)c(=O)n3c2)C1 [Compound 379] | < 100

Next, values leading:

IC50 [nM] | SMILES
< 100 | Cn1cnnc1[C@@H](c1cccc(-n2cc3c(C(F)(F)F)cc(CN4CC5(CCCC5)C4)cn3c2=O)c1)C1CCC1 [Compound 295]
< 100 | COC1(C)CN(Cc2cc(C(F)(F)F)c3cn(-c4cccc([C@H](c5nncn5C)C5CCC5)c4)c(=O)n3c2)C1 [Compound 296]
< 100 | Cn1cnnc1[C@@H](c1cccc(-n2cc3c(C(F)(F)F)cc(CN4CC(F)C4)cn3c2=O)c1)C1CCC1 [Compound 297]
< 100 | Cn1cnnc1[C@@H](c1cccc(-n2cc3c(C(F)(F)F)cc(CN4CC(C)(F)C4)cn3c2=O)c1)C1CCC1 [Compound 298]
< 100 | Cn1cnnc1[C@@H](c1cccc(-n2cc3c(C(F)(F)F)cc(CN4CC(F)(F)C4)cn3c2=O)c1)C1CCC1 [Compound 299]
< 100 | COC1CN(Cc2cc(C(F)(F)F)c3cn(-c4cccc([C@H](c5nncn5C)C5CCC5)c4)c(=O)n3c2)C1 [Compound 312]
< 100 | Cn1cnnc1[C@@H](c1cccc(-n2cc3c(C(F)(F)F)cc(CN4CC(C(F)(F)F)C4)cn3c2=O)c1)C1CCC1 [Compound 313]
< 100 | Cn1cnnc1[C@@H](c1cccc(-n2cc3c(C(F)(F)F)cc(CN4CCO[C@H](C(F)(F)F)C4)cn3c2=O)c1)C1CCC1 [Compound 321]
< 100 | CN(C)C(=O)C1CN(Cc2cc(C(F)(F)F)c3cn(-c4cccc([C@H](c5nncn5C)C5CCC5)c4)c(=O)n3c2)C1 [Compound 325]
< 100 | Cn1cnnc1[C@@H](c1cccc(-n2cc3c(C(F)(F)F)cc(CN4CC(C)(C)C4)cn3c2=O)c1)C1CCC1 [Compound 337]
< 100 | Cn1cnnc1[C@H](c1cccc(-n2cc3c(C(F)(F)F)cc(CN4CCN(C=O)CC4)cn3c2=O)c1)C1CCC1 [Compound 340_P1]
1000 to 3000 | Cn1cnnc1[C@@H](c1cccc(-n2cc3c(C(F)(F)F)cc(CN4CCN(C=O)CC4)cn3c2=O)c1)C1CCC1 [Compound 340_P2]
> 10000 | Cn1cnnc1[C@@H](c1cccc(-n2cc3c(C(F)(F)F)cc(CNC4CC(F)(F)C4)cn3c2=O)c1)C1CCC1 [Compound 346]
100 to 300 | CC1CCCN(Cc2cc(C(F)(F)F)c3cn(-c4cccc([C@H](c5nncn5C)C5CCC5)c4)c(=O)n3c2)CC1 (stereo partly drawn) [Compound 350]
< 100 | Cn1cnnc1[C@@H](c1cccc(-n2cc3c(C(F)(F)F)cc(CN4Cc5ncsc5C4)cn3c2=O)c1)C1CCC1 [Compound 357]
< 100 | C[C@@H]1CCCCN1Cc1cc(C(F)(F)F)c2cn(-c3cccc([C@H](c4nncn4C)C4CCC4)c3)c(=O)n2c1 [Compound 363_P2]
301 to 1000 | CN1CCN(Cc2cc(C(F)(F)F)c3cn(-c4cccc([C@@H](c5nncn5C)C5CCC5)c4)c(=O)n3c2)CC1=O [Compound 364_P1]
< 100 | CN1CCN(Cc2cc(C(F)(F)F)c3cn(-c4cccc([C@H](c5nncn5C)C5CCC5)c4)c(=O)n3c2)CC1=O [Compound 364_P2]
< 100 | CC1CCN(Cc2cc(C(F)(F)F)c3cn(-c4cccc([C@H](c5nncn5C)C5CCC5)c4)c(=O)n3c2)CC1 [Compound 376]
< 100 | Cn1cnnc1[C@@H](c1cccc(-n2cc3c(C(F)(F)F)cc(CN4CCS(=O)(=O)CC4)cn3c2=O)c1)C1CCC1 [Compound 378]
